Source: US12102648B2, “Orally-bioavailable nucleoside analogs” (priority 2021, dated 2024)
Where two headings read alike, the source gives them in different places.

Test: in vitro
Type: in vitro ADME
Conditions: human
Summary of the method: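 Caco-2 monolayers cultured 19 days on inserts (TEER >600 […]); bidirectional A-to-B and B-to-A transport at 37° C over 90 min, samples quantified by LC/MS/MS. Papp, efflux ratio and recovery calculated; ER >2 flags potential efflux substrates.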

[1] = Caco-2 monolayer, apical to basolateral, 90-minute incubation, read-out: Papp, A-B
[2] = Caco-2 monolayer, basolateral to apical, 90-minute incubation, read-out: Papp, B-A
[3] = Caco-2 monolayer, ER>2 indicates potential efflux transporter substrate, read-out: ER (efflux ratio)

Structure (SMILES)	Papp A→B at 90 min (Caco-2) [×10⁻⁶ cm/s]	Papp B→A at 90 min (Caco-2) [×10⁻⁶ cm/s]	efflux ratio at 90 min (Caco-2)	Papp A→B at 90 min [1] [×10⁻⁶ cm/s]	Papp B→A at 90 min [2] [×10⁻⁶ cm/s]	efflux ratio at 90 min [3]
CCC(=O)O[C@@H]1[C@@H](COC(=O)C(C)C)O[C@@H](n2cnc3c(NC)nc(N)nc32)[C@]1(C)F [Compound 235, ((2R,3R,4R,5R)-5-(2-amino-6-(methylamino)-9H-purin-9-yl)-4-fluoro-4-methyl-3-(propionyloxy)tetrahydrofuran-2-yl)methyl isobutyrate]	11	4.5	0.4			
CCCCC(=O)Nc1ncnn2c([C@]3(C#N)O[C@H](CO)[C@@H](O)[C@H]3O)ccc12 [Compound 264, N-(7-((2R,3R,4S,5R)-2-cyano-3,4-dihydroxy-5-(hydroxymethyl)tetrahydrofuran-2-yl)pyrrolo[2,1-f][1,2,4]triazin-4-yl)pentanamide]	0.03	0.53	20			
N#C[C@@]1(c2ccc3c(NC(=O)[C@@H](N)Cc4ccc(F)cc4)ncnn23)O[C@H](COC(=O)CC2CCCCC2)[C@@H](O)[C@H]1O [Compound 96, ((2R,3S,4R,5R)-5-(4-((S)-2-amino-3-(4-fluorophenyl)propanamido)pyrrolo[2,1-f][1,2,4]triazin-7-yl)-5-cyano-3,4-dihydroxytetrahydrofuran-2-yl)methyl 2-cyclohexylacetate]	0.45	5.2	12			
CC(=O)OCOC(=O)OC[C@H]1O[C@@](C#N)(c2ccc3c(NC(=O)[C@@H](N)Cc4ccc(F)cc4)ncnn23)[C@H](O)[C@@H]1O [Compound 366, (((((2R,3S,4R,5R)-5-(4-((S)-2-amino-3-(4-fluorophenyl)propanamido)pyrrolo[2,1-f][1,2,4]triazin-7-yl)-5-cyano-3,4-dihydroxytetrahydrofuran-2-yl)methoxy)carbonyl)oxy)methyl acetate]	2.7	1.1	0.39			
N#C[C@@]1(c2ccc3c(N)ncnn23)O[C@H](COC(=O)CC2CCC(F)(F)CC2)[C@@H](O)[C@H]1O [Compound 262, ((2R,3S,4R,5R)-5-(4-aminopyrrolo[2,1-f][1,2,4]triazin-7-yl)-5-cyano-3,4-dihydroxytetrahydrofuran-2-yl)methyl 2-(4,4-difluorocyclohexyl)acetate]	0.91	4.4	4.8			
N#C[C@@]1(c2ccc3c(NC(=O)c4ccccc4)ncnn23)O[C@H](COC(=O)CC2CCCCC2)[C@@H](O)[C@H]1O [Compound 285, ((2R,3S,4R,5R)-5-(4-benzamidopyrrolo[2,1-f][1,2,4]triazin-7-yl)-5-cyano-3,4-dihydroxytetrahydrofuran-2-yl)methyl 2-cyclohexylacetate]	1.1	0.9	0.83			
CCCC(=O)Nc1ncnn2c([C@]3(C#N)O[C@H](COC(=O)CC4CCCCC4)[C@@H](OC(=O)[C@@H](N)C(C)C)[C@H]3O)ccc12 [Compound 350, (2R,3S,4R,5R)-5-(4-butyramidopyrrolo[2,1-f][1,2,4]triazin-7-yl)-5-cyano-2-((2-cyclohexylacetoxy)methyl)-4-hydroxytetrahydrofuran-3-yl L-valinate]	1.9	6.9	4.3			
CCCCCOC(=O)Nc1ncnn2c([C@]3(C#N)O[C@H](COC(C)=O)[C@@H](O)[C@H]3O)ccc12 [Compound 87, ((2R,3S,4R,5R)-5-cyano-3,4-dihydroxy-5-(4-(((pentyloxy)carbonyl)amino)pyrrolo[2,1-f][1,2,4]triazin-7-yl)tetrahydrofuran-2-yl)methyl acetate]	5.5	14	2.7			
N#C[C@@]1(c2ccc3c(N)ncnn23)O[C@H](COP(=O)(O)OCCCCCCCCCCCCCCCC(=O)O)[C@@H](O)[C@H]1O [Compound 8, 16-(((((2R,3S,4R,5R)-5-(4-aminopyrrolo[2,1-f][1,2,4]triazin-7-yl)-5-cyano-3,4-dihydroxytetrahydrofuran-2-yl)methoxy)(hydroxy)phosphoryl)oxy)hexadecanoic acid]	0.2	0.5	2.4			
CNc1nc(N)nc2c1ncn2[C@@H]1O[C@H](COC(C)=O)[C@@H](O)[C@@]1(C)F [Compound 178, ((2R,3R,4R,5R)-5-(2-amino-6-(methylamino)-9H-purin-9-yl)-4-fluoro-3-hydroxy-4-methyltetrahydrofuran-2-yl)methyl acetate]	6.7	4.4	0.7			
CC(C)[C@H](N)C(=O)OC[C@H]1O[C@@](C#N)(c2ccc3c(NC(=O)[C@@H](N)Cc4ccc(F)cc4)ncnn23)[C@H](O)[C@@H]1O [Compound 94, ((2R,3S,4R,5R)-5-(4-((S)-2-amino-3-(4-fluorophenyl)propanamido)pyrrolo[2,1-f][1,2,4]triazin-7-yl)-5-cyano-3,4-dihydroxytetrahydrofuran-2-yl)methyl L-valinate]	0.07	0.64	9.1			
CC(C)C(=O)OC[C@H]1O[C@@](C#N)(c2ccc3c(NC(=O)[C@@H](N)C(C)C)ncnn23)[C@H](O)[C@@H]1O [Compound 116, [(2R,3S,4R,5R)-5-{4-[(2S)-2-amino-3-methylbutanamido]pyrrolo[2,1-f][1,2,4]triazin-7-yl}-5-cyano-3,4-dihydroxyoxolan-2-yl]methyl 2-methylpropanoate]	0.15	1.2	7.9			
CC(C)[C@H](N)C(=O)Nc1ncnn2c([C@]3(C#N)O[C@H](CO)[C@@H](OC(=O)CC4CCCCC4)[C@H]3O)ccc12 [Compound 139, (2R,3S,4R,5R)-5-(4-((S)-2-amino-3-methylbutanamido)pyrrolo[2,1-f][1,2,4]triazin-7-yl)-5-cyano-4-hydroxy-2-(hydroxymethyl)tetrahydrofuran-3-yl 2-cyclohexylacetate]	0.18	6.1	34			
CNc1nc(NC(=O)Cc2ccccc2)nc2c1ncn2[C@@H]1O[C@H](COC(C)=O)[C@@H](O)[C@@]1(C)F [Compound 334, ((2R,3R,4R,5R)-4-fluoro-3-hydroxy-4-methyl-5-(6-(methylamino)-2-(2-phenylacetamido)-9H-purin-9-yl)tetrahydrofuran-2-yl)methyl acetate]				0.76	19	25
CC(C)CC(=O)OC[C@H]1O[C@@](C#N)(c2ccc3c(NC(=O)[C@@H](N)C(C)C)ncnn23)[C@H](O)[C@@H]1O [Compound 117, [(2R,3S,4R,5R)-5-{4-[(2S)-2-amino-3-methylbutanamido]pyrrolo[2,1-f][1,2,4]triazin-7-yl}-5-cyano-3,4-dihydroxyoxolan-2-yl]methyl 3-methylbutanoate]	0.22	3.3	15			
CC(C)C(=O)Nc1ncnn2c([C@]3(C#N)O[C@H](COC(=O)Cc4ccccc4)[C@@H](OC(=O)[C@@H](N)C(C)(C)C)[C@H]3O)ccc12 [Compound 401, (2R,3S,4R,5R)-5-cyano-4-hydroxy-5-(4-isobutyramidopyrrolo[2,1-f][1,2,4]triazin-7-yl)-2-((2-phenylacetoxy)methyl)tetrahydrofuran-3-yl (S)-2-amino-3,3-dimethylbutanoate]				3.8	15.3	4.1
CC(C)CC(=O)N[C@H](C(=O)OC[C@H]1O[C@@](C#N)(c2ccc3c(N)ncnn23)[C@H](O)[C@@H]1O)C(C)C [Compound 255, [(2R,3S,4R,5R)-5-{4-aminopyrrolo[2,1-f][1,2,4]triazin-7-yl}-5-cyano-3,4-dihydroxyoxolan-2-yl]methyl (2S)-3-methyl-2-(3-methylbutanamido)butanoate]	2.1	5.3	2.5			
CC(=O)OC[C@H]1O[C@@](C#N)(c2ccc3c(N)ncnn23)[C@H](O)[C@@H]1OC(=O)Cc1ccccc1 [Compound 52, (2R,3S,4R,5R)-2-(acetoxymethyl)-5-(4-aminopyrrolo[2,1-f][1,2,4]triazin-7-yl)-5-cyano-4-hydroxytetrahydrofuran-3-yl 2-phenylacetate]				1.4	0.89	0.65
CNc1nc(N)nc2c1ncn2[C@@H]1O[C@H](COC(C)=O)[C@@H](OC(=O)Cc2ccccc2)[C@@]1(C)F [Compound 210, (2R,3R,4R,5R)-2-(acetoxymethyl)-5-(2-amino-6-(methylamino)-9H-purin-9-yl)-4-fluoro-4-methyltetrahydrofuran-3-yl 2-phenylacetate]				15	5.8	0.38
CC(C)CC(=O)OC[C@H]1O[C@@](C#N)(c2ccc3c(NC(=O)[C@@H](N)Cc4ccc(F)cc4)ncnn23)[C@H](O)[C@@H]1O [Compound 101, ((2R,3S,4R,5R)-5-(4-((S)-2-amino-3-(4-fluorophenyl)propanamido)pyrrolo[2,1-f][1,2,4]triazin-7-yl)-5-cyano-3,4-dihydroxytetrahydrofuran-2-yl)methyl 3-methylbutanoate]	0.07	13	175			
CC1(CC(=O)OC[C@H]2O[C@@](C#N)(c3ccc4c(N)ncnn34)[C@H](O)[C@@H]2O)CCCCC1 [Compound 273, ((2R,3S,4R,5R)-5-(4-aminopyrrolo[2,1-f][1,2,4]triazin-7-yl)-5-cyano-3,4-dihydroxytetrahydrofuran-2-yl)methyl 2-(1-methylcyclohexyl)acetate]	3.7	3.2	0.85			
